Assay: Solubility of resveratrol in trilaureth-4 phosphate, judged by visual observation of transparency
Format: physicochemical
Parameters: key to Solubility: +: partially; from + = partially to +++ = fully soluble; +++: fully soluble
Conditions: for Solubility: 40° C.
Protocol: To evaluate solubility of resveratrol in trilaureth-4 phosphate, the following procedure was adopted: lab glass beakers of 250 ml capacity were filled with the phosphate ester surfactant in the range as indicated in Table 1. The final volume was 50 ml. Solubilization occurs almost instantaneously, however the beakers were vigorously shaken for about 1 minute at 6000 rpm. Level of solubility was judged by visual observation of transparency.

Question: For `Oc1ccc(/C=C/c2cc(O)cc(O)c2)cc1` [Resveratrol, 5-[(1E)-2-(4-hydroxyphenyl)ethenyl]-1,3-Benzenediol], which “threshold level of solubility” value (in trilaureth-4 phosphate) is on record?
Answer: around 10%

Question: What about the “solubility in the emulsifier” value (in trilaureth-4 phosphate, room temperature) of the same molecule?
Answer: solubilizes well

Question: What about the Solubility (resveratrol 2 wt.-% in trilaureth-4 phosphate 98 wt.-%) of the same molecule?
Answer: +++

Question: And the Solubility (resveratrol 4 wt.-% in trilaureth-4 phosphate 96 wt.-%)?
Answer: +++

Question: What about the Solubility (resveratrol 6 wt.-% in trilaureth-4 phosphate 94 wt.-%) of the same molecule?
Answer: +++

Question: And the Solubility (resveratrol 8 wt.-% in trilaureth-4 phosphate 92 wt.-%)?
Answer: +++

Question: What about the Solubility (resveratrol 10 wt.-% in trilaureth-4 phosphate 90 wt.-%) of the same molecule?
Answer: +++

Question: And the Solubility (resveratrol 12 wt.-% in trilaureth-4 phosphate 88 wt.-%)?
Answer: ++

From patent US9254252B2, “Compounds” (DSM IP ASSETS B.V., priority 2011, dated 2016)
